# Results from publication PMC6270263, “Factors Influencing the Antifolate Activity of Synthetic Tea-Derived Catechins” (Molecules, 2013).
# Read-outs that look alike come from different tables or passages of the source.
# What was measured:
# [1] = target: T1, human serum albumin (HSA) (Homo sapiens, UniProt P02768); experiment: HSA binding by fluorescence quenching
# T1 construct: purchased Sigma-Aldrich
# Experimental: Fluorescence measurements were made on an automatic scanning Perkin-Elmer LS50B spectrofluorometer with 1.0 cm light path cells equipped with a 150 W xenon (XBO) light source. […] A plot of log (F0-F)/F against log [Q] was used to determine the values of KA and n from the intercept and the slope, respectively. Binding of TMECG, EGCG, and EC to HSA was determined as specified for the BSA binding studies.
# [2] = target: T2, bovine serum albumin (BSA) (Bos taurus, UniProt P02769); experiment: BSA binding by fluorescence quenching
# T2 construct: purchased Sigma-Aldrich
# Text: Upon progressive additions of various concentrations of EGCG and TMCG to BSA, the emission intensity decreases, as shown in Figure 4(a). The quenching of the fluorescence intensity of BSA implies that the catechins bind at close proximity to the tryptophan and tyrosine residues and that the molecular arrangement of BSA is affected by the interactions. […] The binding constants (KA) for the BSA-EGCG and BSA-TMCG complexes are 1.54 × 10^7 M^−1 and 1.9 × 10^5 M^−1, respectively (Table 4), and their plots are shown in Figure 4(b). […] In light of these findings, it can be reasoned that the binding affinity to BSA is higher for the galloylated catechin than for the methylated one, which emphasises that the three phenolic groups can enhance hydrogen bonding between BSA and EGCG [25].
# Fluorescence measurements were made on an automatic scanning Perkin-Elmer LS50B spectrofluorometer with 1.0 cm light path cells equipped with a 150 W xenon (XBO) light source. In all experiments, the fluorescence of BSA (5 × 10^−6 M) in 50 mM phosphate buffer of pH 7.5 was followed by excitation at 280 nm. The binding affinities of EGCG and TMCG with BSA in terms of binding constants were determined using the following equation [25]: log (F0−F)/F = log KA + n log [Q](1) where KA is the binding constant, n is the number of binding sites, F0 is the fluorescence intensity of free BSA and F is the consequent fluorescence upon the addition of catechins (Q). A plot of log (F0-F)/F against log [Q] was used to determine the values of KA and n from the intercept and the slope, respectively.
# [3] = target: T2, bovine serum albumin (BSA); experiment: Competitive site-marker (warfarin, ibuprofen) binding to BSA; details: for Kd: Binding constant (KA), BSA, 25 °C
# Experimental: Next, the site selective binding of both EGCG and TMCG to BSA was analyzed. The capability of serum albumins to bind to aromatic and heterocyclic compounds is largely dependent on the existence of two major binding regions, namely site-I and site-II [25]. Warfarin and ibuprofen are fluorescence probes whose primary binding sites to BSA are site-I and site-II, respectively.
# To identify the binding sites of EGCG and TMCG in BSA, the displacements of warfarin and ibuprofen (known to bind at site I and site II, respectively) were followed fluorometrically. Equimolar solutions of BSA and warfarin (5 × 10^−6 M each) were mixed for 1 h and titrated with EGCG and TMCG in separate experiments. Similar solutions containing equimolar ibuprofen and BSA were prepared and separately titrated with EGCG and TMCG to identify the binding sites of EGCG and TMCG with BSA. Titration was followed fluorometrically using an excitation wavelength of 280 nm.
# [4] = target: T3, free recombinant human DHFR (rHDHFR) (Homo sapiens, UniProt P00374); experiment: Binding of polyphenols to free rHDHFR by fluorescence quenching titration
# T3 construct: made in house; host or cells: Bombyx mori chrysalides
# T3 sequence (P00374 1-187): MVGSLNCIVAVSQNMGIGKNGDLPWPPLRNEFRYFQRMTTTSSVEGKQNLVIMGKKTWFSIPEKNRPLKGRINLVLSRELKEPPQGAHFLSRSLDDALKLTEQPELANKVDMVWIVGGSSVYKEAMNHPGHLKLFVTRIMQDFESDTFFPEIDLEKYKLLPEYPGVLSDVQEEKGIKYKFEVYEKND
# Experimental: Natural and synthetic derivatives of tea catechins have shown to be good inhibitors of human DHFR [7, 11, 16, 18]. To determine the ability of natural and synthetic polyphenols to bind DHFR, we performed a structure-activity study by analyzing the binding of these polyphenols to DHFR using fluorescence quenching. Effective binding to free recombinant human DHFR (rHDHFR) was determined by measuring the decrease in enzyme fluorescence that occurs upon the formation of the enzyme-inhibitor complex. […] The dissociation constants of the synthetic compounds were on the same order as those of the natural analogues, indicating the high DHFR binding capacities of these new derivatives.
# The dissociation constants for the binding of polyphenols to free recombinant human DHFR (rHDHFR) were determined by fluorescence titration in an automatic-scanning FluoroMax-3 (Jobin Ybon, Horiba, Edison, NJ, USA) spectrofluorometer with 1.0 cm light path cells and a 150 W mercury-xenon light source. The formation of a binary complex between the enzyme (2.5 × 10^−7 M) and the ligand (from 0 to 40 µM) was followed by measuring the quenching of the tryptophan fluorescence of the enzyme upon the addition of microliter volumes of a concentrated stock solution of ligand. Experiments were performed at pH 7.5 in a buffer containing 2-(N-morpholino)ethanesulfonic acid (Mes, 0.025 M), sodium acetate (0.025 M), tris(hydroxymethyl)aminomethane (Tris 0.05 M), and NaCl (0.1 M). The temperature was controlled at 25 °C using a Haake D1G circulating bath with a heater and cooler. Fluorescence emission spectra were recorded when the human DHFR fluorescence was excited at 290 nm, and titrations were performed as described elsewhere.
# [5] = system: SK-MEL-28 melanoma cell line; experiment: MTT cell proliferation assay in melanoma cells; format: cell-based, human; details: SK-MEL-28, after 6 days of treatment, read-out: Half-maximal inhibitory concentration (IC50)
# Text: Antifolate compounds are designed to inhibit DHFR and act specifically during DNA and RNA synthesis, making them more toxic to rapidly dividing cells. Recent evidences indicate that tea-catechins and derived compounds could inhibit DHFR and block the folate cycle in cancer cells. Although inhibition of DHFR by these compounds could be a plausible explanation for their antifolate activity, the possibility of these compounds targeting (folate)-enzymes other than DHFR could not be excluded. To determine whether these newly synthetized compounds disrupt the folate cycle in cell culture, we studied their antiproliferative activity in the melanoma cell line SK-MEL-28 (Table 3). Concentration- and time-dependent effects were analyzed using the colorimetric 4,5-(3)-dimethylthiazol-2-yl)-2,5-diphenyltetrazolium bromide (MTT) method.
# The human melanoma cell line SK-MEL-28 was obtained from American Type Culture Collection (ATCC, Manassas, VA, USA) and was maintained in Eagles’s Minimum Essential Medium (EMEM) supplemented with 10% (v/v) FBS and antibiotics at 37 °C in a humidified atmosphere containing 7.5% CO2. Cell viability was evaluated using the MTT cell proliferation assay. Cells were evaluated for apoptosis using a cell death detection ELISA (Cell Death Detection ELISAPLUS, Roche Diagnostics, Barcelona, Spain). The principle of this test is the detection of mono- and oligonucleosomes in the cytoplasmic fractions of cell lysates using biotinylated anti-histone and peroxidase-coupled anti-DNA antibodies. The amount of nucleosomes is photometrically quantified at 405 nm by the peroxidase activity retained in the immunocomplexes. Apoptosis was defined as the specific enrichment of mono- and oligonucleosomes in the cytoplasm and was calculated by dividing the absorbance of treated samples with the absorbance of untreated samples after correcting for the number of cells. The induction of apoptosis in each melanoma cell line after a 7 h treatment with 2 μM staurosporin (100% apoptotic cells) was used to calculate the number of apoptotic cells. For these assays, cells were plated in a 96-well plate at a density of 1000–2000 cells/well. Compounds were added once at the beginning of the experiments.
# [6] = UV-visible absorption spectra at different pH (ionization state); format: physicochemical; details: for Effect of pH on absorption spectra: UV-visible spectra, pH range 5.0–9.0 for TMCG and TMECG
# Experimental: It has been shown that the protonation state of methotrexate, trimethoprim, and pyrimethamine modulates the binding of these antifolates to DHFRs from several sources. […] The absorbance maximum at 278 nm undergoes a bathochromic displacement to 328 nm, which is greatest at alkaline pH (pH > 9.0).
# To determine if the spectral changes in the SYCG and SYECG solutions with pH were due to an irreversible oxidation reaction or to a reversible protonation step, a pH titration experiment was carried out. An alkaline solution of SYCG and SYECG (pH 8.5) was acidified to pH 2.5 by the addition of dilute HCl. A change in the spectra was observed, indicating a reversible protonation reaction. The spectral changes with pH observed in SYCG and SYECG can be attributed to the hydroxyl group para on the ester-bonded gallate moiety. At acidic pH, these derivatives are mainly present as protonated species, whereas at basic pH or values near neutrality, these derivatives evolve toward the deprotonated species, which are stabilized by resonance (Scheme 3). […] As described, an important factor that decreases catechin bioavailability might be their inability to easily cross cellular membranes by passive diffusion. The presence of several hydroxyl groups in these molecules gives them a high hydrophilic character, which increases the difficulty of passing across lipid membranes.
# Ultraviolet-visible absorption spectra of catechins at different pHs were recorded on a UV-Vis Perkin-Elmer Lambda-2 spectrophotometer with a spectral bandwidth of 1 nm at a scan speed of 60 nm s^−1. The experiments were performed in the same buffer as described for DHFR binding studies, and the ionic strength remained constant at an optimum value of 0.15 over the pH range that was used. The pH of the reaction was measured before and after the experiment.
# [7] = Table 2, restates Table 1, read-out: KD, order of binding strengths to rHDHFR depending on D-ring substitution
# [8] = pH 7.5, 25 °C, fluorescence titration, read-out: Dissociation constant KD of free rHDHFR
# [9] = determined as for BSA binding studies, read-out: Binding affinity to HSA (KA) (converted)
# T1 sequence (P02768 25-609): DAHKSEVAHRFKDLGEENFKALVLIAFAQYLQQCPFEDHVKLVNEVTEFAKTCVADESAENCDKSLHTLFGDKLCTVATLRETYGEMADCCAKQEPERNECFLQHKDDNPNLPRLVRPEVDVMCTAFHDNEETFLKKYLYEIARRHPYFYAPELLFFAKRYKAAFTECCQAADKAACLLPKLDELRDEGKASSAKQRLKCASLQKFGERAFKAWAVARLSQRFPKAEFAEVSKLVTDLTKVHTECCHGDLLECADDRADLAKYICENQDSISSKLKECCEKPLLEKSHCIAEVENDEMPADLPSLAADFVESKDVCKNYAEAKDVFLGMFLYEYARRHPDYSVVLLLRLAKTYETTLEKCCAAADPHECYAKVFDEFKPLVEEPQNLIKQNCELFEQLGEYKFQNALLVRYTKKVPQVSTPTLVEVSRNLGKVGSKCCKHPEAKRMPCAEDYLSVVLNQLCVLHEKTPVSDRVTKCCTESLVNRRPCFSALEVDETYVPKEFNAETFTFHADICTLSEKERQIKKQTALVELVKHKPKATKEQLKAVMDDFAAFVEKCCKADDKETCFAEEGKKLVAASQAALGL
# T2 sequence (P02769 25-607): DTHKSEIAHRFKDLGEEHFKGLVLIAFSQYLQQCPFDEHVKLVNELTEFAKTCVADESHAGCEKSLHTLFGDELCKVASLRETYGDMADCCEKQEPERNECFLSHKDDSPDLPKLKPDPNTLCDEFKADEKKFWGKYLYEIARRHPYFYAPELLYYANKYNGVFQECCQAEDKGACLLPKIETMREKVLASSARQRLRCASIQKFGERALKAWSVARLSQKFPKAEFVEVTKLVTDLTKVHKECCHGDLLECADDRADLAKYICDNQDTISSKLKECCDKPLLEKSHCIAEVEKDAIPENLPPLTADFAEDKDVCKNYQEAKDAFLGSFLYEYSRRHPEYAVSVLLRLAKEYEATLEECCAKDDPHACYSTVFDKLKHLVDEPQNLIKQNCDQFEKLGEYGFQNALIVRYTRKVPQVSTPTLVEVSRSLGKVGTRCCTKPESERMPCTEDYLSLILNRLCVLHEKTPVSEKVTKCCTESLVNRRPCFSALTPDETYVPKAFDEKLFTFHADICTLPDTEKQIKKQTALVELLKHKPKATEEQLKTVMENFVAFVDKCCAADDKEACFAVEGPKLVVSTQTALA
"Kd [4, 7] [nM]","Kd [4, 8] [nM]","IC50 ([5]; Homo sapiens, SK-MEL-28, 144 h) [nM]",Effect of pH on absorption spectra [6],melting point [°C],SMILES,other results
,,,,,"O=C(O[C@@H]1Cc2c(O)cc(O)cc2O[C@@H]1c1cc(O)c(O)c(O)c1)c1cc(O)c(O)c(O)c1 [EGCG, epigallocatechin-3-gallate, reference compound]","Kd [1]: 3850 nM; Kd [2]: 64.9 nM; Number of binding sites n ([2]; catechin-BSA complex, double logarithmic plot): approximately 1; Kd ([3]; site marker: Blank): 64.9 nM; Kd ([3]; site marker: Ibuprofen): 82 nM; Kd ([3]; site marker: Warfarin): 7690 nM; Site selective binding to BSA ([3]; competition with warfarin (site-I) and ibuprofen (site-II)): higher specificity for site-I"
720,720 ± 100,126000 ± 10000,strongly affected by the pH,110 to 114,"COc1cc(C(=O)OC2Cc3c(O)cc(O)cc3OC2c2ccc(O)c(O)c2)cc(OC)c1O (centres unmarked) [SYCG, 3-O-(4-hydroxy-3,5-dimethoxybenzoyl)-catechin]",Ionization state at physiologic pH [6]: partially in their ionic form
,,,,,"Oc1cc(O)c2c(c1)O[C@H](c1ccc(O)c(O)c1)[C@H](O)C2 [EC, epicatechin]","Kd [1, 9]: 312000 nM"
,,37400 ± 4000,,88 to 93,"COc1cc(C(=O)O[C@H]2Cc3c(OC(C)=O)cc(OC(C)=O)cc3O[C@@H]2c2ccc(OC(C)=O)c(OC(C)=O)c2)cc(OC)c1OC(C)=O [ASYCG, 5,7,3’,4’,4’’-penta-O-acetyl-3-O-(3,5-dimethoxybenzoyl)-catechin]",
560,560 ± 70,82200 ± 8000,,,"O=C(O[C@H]1Cc2c(O)cc(O)cc2O[C@@H]1c1ccc(O)c(O)c1)c1cc(O)c(O)c(O)c1 [CG, catechin-3-gallate, reference compound]",
770,770 ± 70,,strongly affected by the pH,120 to 123,"COc1cc(C(=O)OC2Cc3c(O)cc(O)cc3OC2c2ccc(O)c(O)c2)cc(OC)c1O (centres unmarked) [SYECG, 3-O-(4-hydroxy-3,5-dimethoxybenzoyl)-epicatechin]",IC50 [5]: 199000 ± 12000 nM; Ionization state at physiologic pH [6]: partially in their ionic form
2100,2100 ± 200,2500 ± 600,no significant changes,,COc1cc(C(=O)O[C@@H]2Cc3c(O)cc(O)cc3O[C@@H]2c2ccc(O)c(O)c2)cc(OC)c1OC [TMECG],"Kd [1, 9]: 23800 nM"
810,810 ± 90,> 100000,,,"O=C(O[C@@H]1Cc2c(O)cc(O)cc2O[C@@H]1c1ccc(O)c(O)c1)c1cc(O)c(O)c(O)c1 [ECG, epicatechin-3-gallate, reference compound]",

SMILES,"Kd [4, 7] [nM]","Kd [4, 8] [nM]","IC50 ([5]; Homo sapiens, SK-MEL-28, 144 h) [nM]",Effect of pH on absorption spectra [6],melting point [°C],other results
"COc1cc(C(=O)O[C@H]2Cc3c(O)cc(O)cc3O[C@@H]2c2ccc(O)c(O)c2)cc(OC)c1OC(C)=O [MASYCG, 3-O-(4-acetoxy-3,5-dimethoxybenzoyl)-catechin]",,,60900 ± 6000,,118 to 122,
